Measurements published in patent US4173654A, “Novel fluorohydrocarbons” (California Institute of Technology, priority 1977, dated 1979).
Where two headings read alike, the source gives them in different places.

Legend:
[1] = Oxygen solubility measured by gas chromatograph having a thermal conductivity detector; format: physicochemical; conditions: 25° C., 760 mm O2 pressure
Procedure: Oxygen solubilities were measured at 25° C. and 760 mm O2 pressure for representative hybrid, fluoroolefin and prior art compounds by means of a gas chromatograph having a thermal conductivity detector and calculated from molar volume and ΔH(vap) by the method of Fedors (Polymer, Engr. Sci. 14 147 (1974). Good agreement was obtained as shown in the following table: […]

[2] = 3M data; cited from earlier work
[3] = Literature values or other data (D, V, δ, BP); format: physicochemical

Row | BP ([3]; 36mm) | Structure (SMILES) | Measured O2 Solubility [1] | 3M solubility data (Literature Values) [2] | D [3] | V [3] | δ [3] | BP ([3]; 750mm) | D ([3]; unit not given) | V ([3]; unit not given) | δ ([3]; unit not given) | BP ([3]; 735mm)
1 |  | FC(F)(F)C(F)(F)C(F)(F)C(F)(F)N(C(F)(F)C(F)(F)C(F)(F)C(F)(F)F)C(F)(F)C(F)(F)C(F)(F)C(F)(F)F [(n-C4 F9)3 N(FC-43), reference compound] | 36.8 cc O2 /100 cc FC | 38.9 cc O2 /100ccFC |  |  |  |  |  |  |  | 
2 |  | CCCCC(C(F)(F)F)(C(F)(F)F)C(F)(F)F [(CF3)3 C(CH2)3 CH3] | 41.2 cc O2 /100 cc FC |  | 1.393 g/cc | 198.3 cc/mole | 5.98 Hb | 101.5 °C |  |  |  | 
3 | 53 °C | CCOC(=O)CC(C(F)(F)F)(C(F)(F)F)C(F)(F)F | 34.4 cc O2 /100 cc FC |  |  |  |  |  | 1.4895 | 205.5 | 7.39 | 
4 |  | FC(F)(F)C(=C(C(F)(C(F)(F)F)C(F)(F)F)C(F)(C(F)(F)F)C(F)(F)F)C(F)(F)F | 39.5 cc O2 /100 cc FC |  |  |  |  |  | 1.820 | 219.8 | 6.4 | 110 °C
5 |  | C=CCC(C(F)(F)F)(C(F)(F)F)C(F)(F)F [(CF3)3 CCH2 CHCH2] | 48 cc O2 /100 cc FC |  |  |  |  |  | 1.442 | 180.31 | 6.0 | 76 °C
